Data published in US20150182472A1, “DENATURED LACTOGLOBULIN AND POLYPHENOL COASSEMBLIES” (TECHNION RESEARCH AND DEVELOPMENT FOUNDTION LTD., priority 2010, published 2015).
Each block holds one compound with its values, some of them ahead of it.

Assays:
[1] = Particle size distribution by dynamic light scattering (DLS); assay type: physicochemical
Experimental: Dynamic light scattering was used to evaluate size distribution of the nanocomplexes formed, and that of the pure protein. To produce particles containing the EGCG:β-Lg molar ratios 2:1, 4:1, 6:1, 8:1 and 10:1, two experiments were performed: • (1) β-Lg solution (0.54 mM, in 0.9 ml of 30 mM PBS, pH 7) was heated to 75° C. for 20 minutes, and then EGCG solutions (1.96 mM-10.25 mM, in 0.48 ml of 5 mM PBS, pH 2.5) were added. […] The final EGCG concentrations were 0.87 mM-4.36 mM (0.04%-0.2%), the final β-Lg concentration was 0.43 mM (0.8%) and the pH of the final solution was 6.88.
After polyphenol addition, samples were vortexed for 20 seconds and allowed to cool to room temperature before measurement.
Particle size distribution was studied by a dynamic light scattering (DLS) analyzer (NICOMP™ 380, Particle Sizing Systems Inc., Santa Barbara, Calif., USA) equipped with an Avalanche Photo Diode (APD) detector, used at a fixed angle of 90°. The 90 mW laser wavelength was 658 nm. Mono- bi- or tri-modal distributions were calculated from the scattered light intensity fluctuations, by cumulants Nicomp™ analysis of the auto correlation function (see supplementary information in (Shapira, Assaraf, & Livney, 2009) for a more complete method description). The size range for the Nicomp distribution analysis was set to 1-1,000 nm. Measurements were made in duplicates at 25° C. Table 3 and FIG. 7 show an increase in particle size with increasing EGCG concentration indicating the formation of preheated complexes/nanoparticles (75° C., 20 min before EGCG addition). The molar ratios of β-Lg to EGCG presented in FIG. 7 are: 1:0 (straight line), 1:2 (dotted line), 1:4 (broken line), 1:6 (bold line/dot/line; ? ), 1:8 (fine line/dot/line; ? ) and 1:10 (line/2 dots; ? ).
As detailed above, EGCG-β-Lg nanoparticles at neutral pH are smaller than 50 nm. In order to determine whether the addition of EGCG to the preheated β-Lg causes, in addition to a slight increase in size, a change in colloidal stability, different EGCG concentration solutions were added to the pre-heated β-Lg to create nano-complexes comprised of β-Lg:EGCG at molar ratios in the range of 1:0 to 1:8, while the β-Lg concentration remains constant at a neutral pH (6.8).
The size distribution of the nano-particles solution seemed to consist of two fractions. The first fraction included the small nano-particles in the range of 2-3 nm in diameter and the second fraction included nano-particles of about 15 nm. Since the size of the protein molecule is around 2 nm, it would be reasonable to assume that the smaller-size fraction represents unbound protein molecules or protein molecules with a few bound EGCG molecules, while the larger-size fraction represents complexes comprising several protein molecules, and probably also several EGCG molecules. […] It was important to see whether the increase in the fraction of the larger sized complexes causes a decrease in colloidal stability. Therefore the predicted stability of the same complexes was studied by measuring the electrophoretic mobility (EM) of the nanocomplexes (FIG. 9B). For uniform and moderate electric fields, a linear relationship usually exists between the steady-state electrophoretic mobility and the zeta potential value (Delgado, et al. (2007) Journal of Colloid and Interface Science, Vol. 309, pages 194-224). The zeta potential is calculated according to the measured electrophoretic mobility using several theoretical models available. The choice of a suitable model is carried out according to the ratio of the particle radius (a) and the Debye length (κ−1) (i.e. a/κ−1=κ*a) which characterize the studied composition. […] In the composition of the invention for the smaller particles (of ˜2-3 nm) the κ*a was approximately 1.5. For the larger complexes of about 15 nm, the κ*a value was approximately 7.5. […]

[2] = target: T1, preheated β-Lg (75° C., 20 min) (Bos taurus, UniProt P02754); test: Intrinsic protein fluorescence quenching: binding of EGCG to preheated β-Lg (Langmuir-based model and modified Stern-Volmer); set-up: species or system bovine; conditions: for KSVa ± S.E. (Stern-Volmer quenching constant) / fa ± S.E. (fraction of fluorophore-sites accessible): preheated 20 min 75° C.; for Ka ± S.E.: protein preheated 20 min 75° C. before adding EGCG
T1 construct: Beta-lactoglobulin (β-Lg, 18.4 kDa, 162 amino acids) is the major whey protein in cow milk; purchased
T1 sequence (P02754 17-178): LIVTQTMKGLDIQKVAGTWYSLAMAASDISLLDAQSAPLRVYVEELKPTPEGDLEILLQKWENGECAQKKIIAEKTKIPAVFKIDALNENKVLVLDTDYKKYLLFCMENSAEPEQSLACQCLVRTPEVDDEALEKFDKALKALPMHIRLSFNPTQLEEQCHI
Experimental: (§1) It is based on exciting at 280 nm the Trp and Tyr residues of bovine β-Lg (bovine β-Lg contains two Trp residues and four Tyr residues) and at 295 nm where only Trp residues are excited though the quantum yield of the Trp itself is smaller than that at 280 nm.
(§2) All fluorescence measurements were performed at room temperature. β-Lg solution (2.09 μM in 1.9 ml of 30 mM PBS, pH 6.86) was heated at 75° C. for 20 minutes, or kept at room temperature. The co-assembly preparation process was done as described above. All measurements were performed after equilibrating the solutions at room temperature for 3 hours. EGCG solutions were 0-400 μM in 0.1 ml of 30 mM PBS, pH 2.44. All samples were prepared in triplicates. The pH of the final solutions was 6.86. β-Lg fluorescence was measured at constant protein concentration of 2 μM and EGCG concentrations of 0-20 μM using a Fluorolog 3-22 spectrofluorometer (Horiba, Jobin Yvon, Longjumeau, France) at a Right-Angle mode. Emission spectra were recorded from 290 to 510 nm with an excitation wavelength of 280 nm, and from 305 to 520 nm with an excitation wavelength of 295 nm, employing 5 nm slit widths. The statistical analysis and non-linear curve fitting were performed using Origin 8 (OriginLab, Northampton, USA).
(§3) Trp61 is reportedly quenched in the native state due to proximity to the Cys66-Cys160 disulfide bond, while Trp 19 is located in a non-polar environment within the cavity of the β-barrel structure, and is responsible for most of the Trp (and the protein) fluorescence. A small shift in the maximal emission wavelength of the protein occurred upon heating and was more clearly observed at the excitation wavelength attributed to Trp alone (295 nm). As only small shifts in the maximal wavelength occurred, all analyses were performed at emission of 343 nm for both excitation wavelengths. When studying the binding of EGCG to β-LG by fluorescence, it is important to keep in mind that EGCG, and not only β-LG, absorbs energy, both at the protein's excitation and, to a lower extent, at the emission wavelengths. Consequently, an inner filtering effect occurs, which intensifies with increasing EGCG concentration, reducing the amount of available energy to excite the protein' s fluorescent groups and absorbing some of the emitted energy too. To overcome this effect, the emission at 343 nm was corrected according to Beer-Lambert's law, using equation 1:
(§4) F=Fu·10^QL(ε^λex^+ε^λem^) (Equation 1)
(§5) where Fu is the measured, uncorrected emission intensity, ελex and ελem—the molar extinction coefficients of EGCG at the excitation and emission wavelengths respectively (measured spectrophotometrically, in the same buffer), Q is the quencher (EGCG) concentration in the cell and L is the path length assumed to be 0.5 cm each for the excitation and emission.
(§6) The analysis for determination of the binding constants was performed using a Langmuir-based model, assuming one affinity-class of binding sites, as described by equation (2): […]
(§7) where F and F0 are the fluorescence intensities of the protein solution in the presence and in the absence of the ligand, respectively; F∞ is the fluorescence when the protein is saturated with the ligand and L0 is the total ligand concentration. The decrease in the fluorescence in the presence of different EGCG concentrations was recorded, and the association constant (Ka) as well as the value for maximum fluorescence difference (ΔFmax=F0−F∞) were calculated by non-linear curve fitting to equation 2 (FIG. 5). The parameters for the fitting were based on the quenching of Tyr and Trp fluorescence at pH 6.87, for β-Lg concentration of 2 μM.
(§8) Fluorescence quenching is often described by the Stern-Volmer equation (3): […]
(§9) where F0 and F are the fluorescence intensities before and after the addition of the quencher, respectively, KSV is the Stern-Volmer quenching constant and [Q] is the concentration of the quencher. […]

[3] = sodium phosphate buffer (pH 7.4); 3 hr; cited from earlier work
[4] = target: T2, native β-Lg (Bos taurus, UniProt P02754); test: Intrinsic protein fluorescence quenching: binding of EGCG to native β-Lg (Langmuir-based model and modified Stern-Volmer); set-up: species or system bovine; conditions: without preheating (RT)
T2 construct: Beta-lactoglobulin (β-Lg, 18.4 kDa, 162 amino acids) is the major whey protein in cow milk; purchased
T2 sequence (P02754 17-178): T1 sequence (P02754 17-178)
Experimental: as §1, §2, §3, §4, §5, §6, §7, §8, §9

[5] = Protection against EGCG oxidation: absorbance at 425 nm over time; assay type: physicochemical
Experimental: Aliquots of 2.5 ml EGCG solution were transferred to 1 cm path length spectrophotometer cuvettes and covered with parafilm to prevent evaporation. […] Solutions of 0.52 mM (0.95%) protein at a 2:1 molar ratio (EGCG:protein) and pH 6.85 were compared to pure EGCG solutions. The protein was preheated at 2 temperatures (75° C. and 85° C.) for 20 minutes or kept at room temperature, to compare the protection provided by the partially denatured protein to that of the native protein. The reason for testing these two temperatures was that according to the literature, at about this pH, between 65-75° C. small proteins oligomers are formed, while between 75-85° C. some aggregation of the oligomers occurs. […] Appropriate controls of β-Lg without EGCG and EGCG without β-Lg at the respective concentrations and pH were performed. After preparation, the samples were placed in 1 cm path length spectrophotometer cuvettes and covered with parafilm. […]

[6] = Loading efficiency and loading ratio of EGCG by centrifugal ultrafiltration; assay type: physicochemical; conditions: both β-Lg concentrations (0.5% and 1% w/w)
Experimental: The loading efficiency (the percentage of encapsulated substance out of total material added to the composition) and loading ratio (the ratio between the encapsulated substance and the encapsulation matrix) of EGCG was determined. β-Lg-EGCG nanoparticles solutions, of 2:1 and 8:1 EGCG: β-Lg molar ratios, were prepared at 1% w/w and 0.5% w/w protein solution. The entrapped EGCG in β-Lg nanoparticles was separated from the free EGCG by centrifugal ultrafiltration as described above. The molar loading ratio and the loading efficiency are presented on Table 4.

[7] = β-Lg 0.35 mM (0.65% (w/w) pH 6.56)
[8] = β-Lg 0.43 mM (0.8% (w/w) pH 6.56)

Compound: 1:0: preheated β-lactoglobulin without EGCG (major whey protein in cow milk, 18.4 kDa)
size ([1]; rough summary of Table 3): around 2 nm
d, Peak I (β-Lg) [1, 7]: 4.8 nm
fvw, Peak I (β-Lg) [1, 7]: 99.6%
d, Peak I (β-Lg) [1, 8]: 1.4 nm
d, Peak II (β-Lg-EGCG) [1, 8]: 20.2 nm
fvw, Peak I (β-Lg) [1, 8]: 99.8%
fvw, Peak II (β-Lg-EGCG) [1, 8]: 0.2%

KSVa ± S.E. (Stern-Volmer quenching constant) ([2]; excitation 280 nm): 3.31 ± 0.7 10^5 M^−1
fa ± S.E. (fraction of fluorophore-sites accessible) ([2]; excitation 280 nm): 0.32 ± 0.05
Ka ± S.E. ([2]; excitation 280 nm): 3.7 ± 0.67 10^5 M^−1
KSVa ± S.E. (Stern-Volmer quenching constant) ([2]; excitation 295 nm): 3.07 ± 1.05 10^5 M^−1
fa ± S.E. (fraction of fluorophore-sites accessible) ([2]; excitation 295 nm): 0.25 ± 0.07
Ka ± S.E. ([2]; excitation 295 nm): 3.3 ± 1.07 10^5 M^−1
Ka (association constant, Langmuir-based model fit) ([2]; pH 6.87, β-Lg 2 μM, FIG. 5 fit): 370000 ± 67000 M⁻¹
ΔFmax*10^6 (maximum fluorescence difference) ([2]; pH 6.87, β-Lg 2 μM, FIG. 5 fit): 3.31±0.17
KSVa ± S.E. (Stern-Volmer quenching constant) ([4]; excitation 280 nm): 1.4 ± 0.7 10^5 M^−1
Ka ± S.E. ([4]; excitation 280 nm): 1.05 ± 0.34 10^5 M^−1
fa ± S.E. (fraction of fluorophore-sites accessible) ([4]; excitation 280 nm): 0.16 ± 0.07
KSVa ± S.E. (Stern-Volmer quenching constant) ([4]; excitation 295 nm): 1.4 ± 0.7 10^5 M^−1
Ka ± S.E. ([4]; excitation 295 nm): 1.9 ± 0.6 10^5 M^−1
fa ± S.E. (fraction of fluorophore-sites accessible) ([4]; excitation 295 nm): 0.15 ± 0.06
increase in the 425 nm absorbance with time ([5]; EGCG solution (0.05%) in pH 2.5 PBS): no increase
EGCG degradation rate (increase in absorbance at 425 nm) ([5]; eight days at room temperature, EGCG 1.09 mM (0.05%), β-Lg 0.52 mM, pH 6.85): fastest increase in the absorbance
Compound: O=C(O[C@@H]1Cc2c(O)cc(O)cc2O[C@@H]1c1cc(O)c(O)c(O)c1)c1cc(O)c(O)c(O)c1 [EGCG, (−)-Epigallocatechin-3-gallate]
EGCG lost [3]: 80%
degradation rate (absorbance at 425 nm) ([5]; PBS pH 6.8, EGCG 0.05%-0.5%): degradation rate increased with rising EGCG concentration

Compound: Cn1c(=O)c2c(ncn2C)n(C)c1=O [caffeine]
binding or entrapment in β-Lg [6]: did not show any binding or entrapment
